# Results reported in publication PMC12858405, “Ideal efficacy photoswitching for chromocontrol of TRPC4/5 channel functions in live tissues” (Nature Chemical Biology, 2026).
# pEC50, pIC50: −log10 of the molar value.
# Experiments:
# mouse TRPC5 = target: T1, mouse TRPC5 (Mus musculus, UniProt Q9QX29); experiment: FLIPR Ca2+ influx assay (Fluo-4) with 365/447 nm photoswitching, HEK293 stably expressing mouse TRPC5; format: cell-based; details: Z* = mostly-Z PSS under 365 nm LED; Fluo-4-loaded cells; read-out: Agonistic EC50 (365 nm) TRPC5
# T1 construct: expressed in transfected cells; host or cells: HEK293 (ATCC CRL 1573), stably transfected, tetracycline-induced
# T1 sequence (Q9QX29 1-975): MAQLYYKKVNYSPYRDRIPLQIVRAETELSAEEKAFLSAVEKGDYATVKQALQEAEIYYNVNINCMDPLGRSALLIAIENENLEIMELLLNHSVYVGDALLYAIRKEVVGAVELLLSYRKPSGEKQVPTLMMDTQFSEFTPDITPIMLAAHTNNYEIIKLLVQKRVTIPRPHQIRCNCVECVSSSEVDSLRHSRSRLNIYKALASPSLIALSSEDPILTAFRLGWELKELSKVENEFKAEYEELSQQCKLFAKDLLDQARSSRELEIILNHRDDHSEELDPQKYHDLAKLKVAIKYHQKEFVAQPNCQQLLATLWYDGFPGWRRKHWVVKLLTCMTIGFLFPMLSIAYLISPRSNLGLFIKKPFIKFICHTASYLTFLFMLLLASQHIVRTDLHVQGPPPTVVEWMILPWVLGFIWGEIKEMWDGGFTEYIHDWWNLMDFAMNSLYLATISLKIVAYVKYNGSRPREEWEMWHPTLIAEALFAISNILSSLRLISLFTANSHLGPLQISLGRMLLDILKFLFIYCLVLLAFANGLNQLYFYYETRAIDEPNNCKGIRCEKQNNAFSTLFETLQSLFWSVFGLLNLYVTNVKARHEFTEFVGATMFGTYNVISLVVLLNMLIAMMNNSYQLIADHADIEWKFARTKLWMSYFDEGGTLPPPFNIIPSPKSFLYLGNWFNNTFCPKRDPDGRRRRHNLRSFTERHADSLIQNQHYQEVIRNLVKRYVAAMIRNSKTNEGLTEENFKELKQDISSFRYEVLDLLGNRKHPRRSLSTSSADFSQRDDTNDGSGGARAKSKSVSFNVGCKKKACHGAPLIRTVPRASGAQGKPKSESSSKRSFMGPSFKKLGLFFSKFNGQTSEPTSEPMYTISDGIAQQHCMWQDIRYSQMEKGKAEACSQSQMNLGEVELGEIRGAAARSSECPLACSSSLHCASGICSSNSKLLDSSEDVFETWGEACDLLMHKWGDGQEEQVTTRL
# Description: (§1) We initially screened for the photoswitchability of activity in cells using a fluorometric imaging plate reader (FLIPR) calcium flux assay, with HEK293 cells stably expressing mouse TRPC4β or mouse TRPC5. Note, however, that the parallel-throughput FLIPR setup is limited to use fixed light-emitting diodes at 365 nm (good Z) and 447 nm (suboptimal E), which, combined with the slowness of the onset and recovery of the fluorescence readout for calcium, causes the FLIPR results to underestimate the reagents’ true speed, degree and completion of TRPC chromocontrol (shown later). […]
# (§2) 3 Cultured Cell Lines (primarily for Fig. 1 and Fig. 2)
# (§3) 3.1 FLIPR Ca2+ influx assay in cell suspensions.
# (§4) We initially screened for photoswitchability of activity in cells, using a fluorometric imaging plate reader (FLIPR) calcium flux assay, with human embryonic kidney cell line HEK293 stably transfected to express mouse TRPC4β- or TRPC5-CFP fusion protein (HEKmTRPC4β-CFP / HEKmTRPC5-CFP, HEK293 obtained from ATCC CRL 1573). The FLIPR setup provides high-content data, but it is limited to using LED wavelengths of 365 nm (best-Z) and 447 nm (suboptimal-E), while imaging at 470 nm excitation (Fluo-4 AM as Ca2+ indicator; this imaging light counteracts both PSSs). Therefore, we expected the FLIPR results to under-estimate the true chromocontrol power accessible to the reagents.
# (§5) Cells were grown to 70%-90% confluency in a 75-cm2 culture flask, trypsinised, washed and resuspended in BSA-containing (0.1%) HBS, and supplemented with 3 µM Fluo-4/AM. Stably TRPC-transfected cells were induced with tetracycline 24 h prior to the experiments.42,43 After incubation at 37°C for 30 min [Fluo-4 loading], cells were again washed, resuspended, and dispensed (40 µl/well) into black pigmented, clear-bottom 384-well plates (Greiner µ-clear). To image the Fluo-4 fluorescence during the application and photoswitching of test compounds, these plates were first mounted to a Tecan Fluent 480 (Tecan, Männedorf, Switzerland) liquid handling device, equipped with a 384-tip multichannel arm and a gripper arm. A custom-made plate-imaging device was used for photoswitching during fluorescence imaging, which features LED-based excitation modules (365 nm and 447 nm used here for photoswitching, and 470 nm used here for Fluo-4 readout) projected onto the bottom of the microwell plate, with a cooled scientific complementary metal oxide sensor (sCMOS) camera (Zyla 5.5, Andor, Belfast, UK) equipped with a Nokton 42.5 mm f/0.95 (Voigtlaender, Fürth, Germany) for detection. The LEDs were controlled with an Arduino device and constant current drivers (1 A for 365 and 470 nm LEDs; 3 A for 447 nm LED); detection was under the control of Micromanager 2.0 software. Compounds were serially diluted and applied to the Fluo-4-loaded cell suspensions inside this custom plate-imaging device, then fluorescence intensities (under 470 nm excitation) were continuously recorded during programmed illuminations e.g. with alternating 365 nm and 447 nm phases.
# (§6) Concentration-response curves for the Z-isomers (channel activation) were then constructed from the maximal signals during 365 nm phases, after a suitable number of "priming" cycles to allow the system to reach stable performance (Supplementary Fig. 13).
# All experiments were conducted as a minimum of 3 independent experiments with each experiment averaging data in technical duplicates. […]
# Cellular TRPC5 photoswitching: HEK cell Ca2+ influx photomodulation […]
# Supplementary Figure 12. […] All […]
# four compounds' profiles are consistent with their being ideal efficacy photoswitches (representative traces from one experiment out of ≥3 independent experiments each run in technical duplicates). […]
# log c [nM] log c [nM] log c [nM] log c [nM]
# Supplementary Figure 13. Dose-response for Z*-AzPico, Z*-AzPico2, Z*-AzHC, and Z*-AzHC2 on TRPC5 and […]
# mouse TRPC4β = target: T2, mouse TRPC4β (Mus musculus, UniProt Q9QUQ5); experiment: FLIPR Ca2+ influx assay (Fluo-4) with 365/447 nm photoswitching, HEK293 stably expressing mouse TRPC4β; format: cell-based; details: Z* = mostly-Z PSS under 365 nm LED; Fluo-4-loaded cells; read-out: Agonistic EC50 (365 nm) TRPC4
# T2 construct: expressed in transfected cells; host or cells: HEK293 (ATCC CRL 1573), stably transfected, tetracycline-induced
# T2 sequence (Q9QUQ5 1-890 isoform Q9QUQ5-2): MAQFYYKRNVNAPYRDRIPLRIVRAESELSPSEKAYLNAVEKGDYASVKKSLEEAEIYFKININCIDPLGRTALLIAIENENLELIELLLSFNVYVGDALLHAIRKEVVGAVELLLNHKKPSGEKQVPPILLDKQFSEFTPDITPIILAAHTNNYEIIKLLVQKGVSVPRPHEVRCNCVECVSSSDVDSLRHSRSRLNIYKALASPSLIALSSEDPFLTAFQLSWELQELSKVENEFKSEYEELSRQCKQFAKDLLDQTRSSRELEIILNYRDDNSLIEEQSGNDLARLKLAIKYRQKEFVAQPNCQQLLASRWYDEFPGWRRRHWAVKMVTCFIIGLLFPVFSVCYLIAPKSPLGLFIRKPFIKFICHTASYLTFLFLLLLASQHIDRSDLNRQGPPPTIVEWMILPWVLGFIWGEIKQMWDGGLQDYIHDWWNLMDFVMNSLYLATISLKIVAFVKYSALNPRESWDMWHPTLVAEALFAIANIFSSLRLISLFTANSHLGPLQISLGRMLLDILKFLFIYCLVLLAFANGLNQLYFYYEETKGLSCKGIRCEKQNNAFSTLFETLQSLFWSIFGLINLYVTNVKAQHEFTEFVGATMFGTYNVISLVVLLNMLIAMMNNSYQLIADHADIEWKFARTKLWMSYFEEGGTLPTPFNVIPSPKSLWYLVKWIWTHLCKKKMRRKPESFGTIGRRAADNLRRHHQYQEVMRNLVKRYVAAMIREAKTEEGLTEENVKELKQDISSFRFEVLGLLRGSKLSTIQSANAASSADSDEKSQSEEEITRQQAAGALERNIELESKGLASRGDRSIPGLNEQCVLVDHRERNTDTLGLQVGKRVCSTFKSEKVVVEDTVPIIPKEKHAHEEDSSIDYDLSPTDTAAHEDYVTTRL
# Description: as §1, §2, §3, §4, §5, §6
# All experiments were conducted as a minimum of 3 independent experiments with each experiment averaging data in technical duplicates.
# Cellular TRPC4 photoswitching: HEK cell Ca2+ influx photomodulation […]
# Supplementary Figure 12. […]
# [1] = system: Th+ neurons of Th-GCaMP6f-ΔTrpc5 mice; experiment: GCaMP6f Ca2+ imaging of Th+ neurons in arcuate nucleus brain slices with 355 nm photoswitching, Th-GCaMP6f-ΔTrpc5 (5ko) mice; details: 500 nM; 355 nm pulse
# Description: slices through the ARC of mice expressing the Ca2+ indicator GCaMP6f in Th+ neurons (Fig. 4),
# we investigated (1) whether Ca2+ responses at endogenous TRPC5 expression levels can be
# TRPC5 expression using TRPC5-deficient brain slices, (3) whether a dose dependence could be
# detected, and (4) whether there are properties in channel activity that can be distinguished between
# concentration-response measurements (Fig. 5d).
# EA-activated TRPC5 = target: T3, EA-activated TRPC5 (Mus musculus, UniProt Q9QX29); experiment: FLIPR Ca2+ assay, E isomers silencing EA-activated TRPC5 (HEK293-mTRPC5-YFP); format: cell-based
# T3 construct: expressed in transfected cells; host or cells: HEK293-mTRPC5-YFP
# T3 sequence (Q9QX29 1-975): T1 sequence (Q9QX29 1-975)
# Description: Müller, Niemeyer, et al., Schaefer & Thorn-Seshold 2025: Ideal Efficacy Photoswitching of TRPC4/5 in Tissue but it can justify why the affinity of the E/Z-isomers may be similar.
# (§7) (2) The EC50 values are reported as the midpoints of unconstrained sigmoidal fits to the FLIPR data (Fig 1l and Supplementary Fig. 2): with different levels of channel activation / blocking and very different Hill slopes across different compounds, isomers, and the two channels. This argues that the midpoint values only capture one of the several important factors describing the […]
# (§8) We believe that it is possible to derive indicative relative values for binding affinity comparing the E and Z isomers of the same compound using only the combination of FLIPR and ephys data as reported in this paper; this analysis is being developed in a separate paper (see also below).
# (§9) Supplementary Table 1. Potencies on TRPC4/5 depicted as either simple agonistic potency (blue) or else inhibitory […]
# (§10) . Z*-values refer to mostly-Z-isomer reached at PSS at 365 nm, E*-values refer to experiments that initially applied 100% E-isomer (thermally relaxed), though in both cases the Ca2+ imaging in FLIPR with Fluo4-AM uses 470 nm excitation, which may over time promote photoswitching towards a PSS that is intermediate between those of pure-365 nm and all-E; this is controlled for in the more reliable ephys measurements). (Table indices: a, data from ref7; b, data from ref2; c, data from ref3; d, data from ref8.) EC50 [nM] (for simple agonism or EA-competitive inhibition)
# (§11) E-AzPico 90 (vs 30 nM EA) 67 (vs 30 nM EA) […]
# (§12) orange: inhibitory effect ag.: agonistic effect
# (§13) 1.1.1 From always-active antagonists and agonists towards efficacy photoswitches […]
# (§14) photoisomerising an azobenzene that is merged in at the C’4 position yielding the compounds […]
# inhibitory effect for the E-isomers (Supplementary Table 1). Essentially, the effects of Pico145 and AM237 are latent within a single (two-state reversibly photoswitchable) molecule. This combination is what we call an efficacy switch (also see main text Fig. 1e-j).
# 1.1.2 Mechanistic test for efficacy photoswitching […]
# deliver (Fig. 1-2) is a powerful support for an efficacy switch interpretation. To indirectly support this further, we also measured the effects of E-AzPico and E-AzHC against EA-activated TRPC4/5.
# Both E-isomers bind to TRPC4/5 and inhibit EA-evoked currents with nanomolar potencies (Supplementary Fig. 2, Supplementary Table 2). This supports the hypothesis that E- […]
# (§15) to be an EA-competitive binder5,9,10), so their efficacy as single agent photoswitches results from E/Z-competitive binding that is determined by their PSS. […]
# (§16) Supplementary Table 2. […] (a Inhibitory effect measured against 30 nM EA; b Inhibitory effect measured against 50 nM EA). […]
# EA-activated TRPC4 = target: T4, EA-activated TRPC4 (Mus musculus, UniProt Q9QUQ5); experiment: FLIPR Ca2+ assay, E isomers silencing EA-activated TRPC4 (HEK293-mTRPC4β-YFP); format: cell-based; details: Inhibitory IC50 (versus 30 nM EA) TRPC4, E isomer, thermally relaxed; 30 nM EA
# T4 construct: expressed in transfected cells; host or cells: HEK293-mTRPC4β-YFP
# T4 sequence (Q9QUQ5 1-890 isoform Q9QUQ5-2): T2 sequence (Q9QUQ5 1-890 isoform Q9QUQ5-2)
# Description: as §7, §8, §9, §10, §11, §12, §13, §14
# deliver (Fig. 1-2) is a powerful support for an efficacy switch interpretation. To indirectly support this further, we also measured the effects of E-AzPico and E-AzHC against EA-activated TRPC4/5. […]
# as §15, §16
structure (smiles),measurement,setting,value
Cn1c(=O)n(CCCO)c(=O)c2c1nc(Oc1ccc(/N=N\c3ccccc3)c(OC(F)(F)F)c1)n2Cc1ccc(Cl)cc1 [Z*-AzPico],pEC50,mouse TRPC5,8.40
same,pEC50,mouse TRPC4β,8.52
same,Ca2+ photoresponse in TRPC5-knockout slices,[1],maintained
Cn1c(=O)n(CCCO)c(=O)c2c1nc(Oc1ccc(/N=N/c3ccccc3)c(Cl)c1)n2Cc1ccc(Cl)cc1 [E-AzHC],pIC50,"EA-activated TRPC5; Inhibitory IC50 (versus 30 nM EA) TRPC5, E isomer, thermally relaxed, 30 nM EA",6.83
same,pIC50,"EA-activated TRPC5; Inhibitory IC50 (versus 50 nM EA) TRPC5, E isomer, 50 nM EA",6.75
same,pIC50,EA-activated TRPC4,6.96
